Laboratory results as given in publication PMC9244950 (ACS Omega, 2022).
≈ marks a conversion by molar mass, not a printed value.

Tests used:
Mtb H37Rv strain = test: microbe, parasite or virus in culture; format: cell-based, Mycobacterium tuberculosis
[1] = In vitro cytotoxicity, THP-1 cell viability after 3 days; format: cell-based; conditions: human, THP-1 cells
wild-type InhA = wild-type InhA (Mycobacterium tuberculosis, UniProt P9WGR1); test: InhA inhibition assay; format: biochemical
[2] = Mtb H37Rv, dual read-out (OD590 and fluorescence)
[3] = Mycobacterium tuberculosis, H37RV
[4] = Mycobacterium tuberculosis, H37RV, Mtb H37Rv, dual read-out (OD590 and fluorescence)

wild-type InhA, sequence (P9WGR1 whole entry, looked up): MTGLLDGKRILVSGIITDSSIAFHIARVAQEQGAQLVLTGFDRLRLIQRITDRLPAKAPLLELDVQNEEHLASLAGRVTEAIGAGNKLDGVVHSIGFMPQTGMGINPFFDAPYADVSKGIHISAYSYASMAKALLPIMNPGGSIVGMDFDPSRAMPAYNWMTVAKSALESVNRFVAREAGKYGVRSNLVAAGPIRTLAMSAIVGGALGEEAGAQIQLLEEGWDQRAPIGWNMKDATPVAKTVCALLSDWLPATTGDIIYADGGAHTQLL

Row | Molecule | IC50 (Mtb H37Rv strain; [2]) | MIC (Mtb H37Rv strain; [2]) | MIC (Mtb H37Rv strain; [3]) | IC50 (Mtb H37Rv strain; [4]) | IC50 at 3 days [1] | IC50 (wild-type InhA)
1 | 2-(4-Methyl-2-oxo-2H-chromen-6-yl)isoindoline-1,3-dione [Compound 30] | > 200 µM | > 200 µM |  |  |  | 
2 | O=C1c2ccccc2C(=O)N1c1ccc(F)cc1 [Compound 2, 2-(4-Fluorophenyl)isoindoline-1,3-dione] |  |  | > 200 µM | 197 µM |  | 
3 | Cc1ccccc1N1C(=O)c2ccccc2C1=O [Compound 3, 2-(o-Tolyl)isoindoline-1,3-dione] |  |  | 194 µM (≈ 46 µg/mL) | 68 µM |  | 
4 | O=C1c2ccccc2C(=O)N1c1ccc(F)c(Cl)c1 [Compound 4, 2-(3-Chloro-4-fluorophenyl)isoindoline-1,3-dione] |  |  | 186 µM (≈ 51.3 µg/mL) | 64 µM |  | 
5 | Cc1cccc(N2C(=O)c3ccccc3C2=O)c1 [Compound 5, 2-(m-Tolyl)isoindoline-1,3-dione] |  |  | 100 µM (≈ 23.7 µg/mL) | 29 µM | > 150 µM | 
6 | O=C1c2ccccc2C(=O)N1c1ccc(Cl)cc1 [Compound 6, 2-(4-Chlorophenyl)isoindoline-1,3-dione] |  |  | 94 µM (≈ 24.2 µg/mL) | 28 µM | > 150 µM | 
7 | O=C1c2ccccc2C(=O)N1c1cccc(Cl)c1 [Compound 7, 2-(3-Chlorophenyl)isoindoline-1,3-dione] |  |  | 96 µM (≈ 24.7 µg/mL) | 26 µM | > 150 µM | 
8 | O=C1c2ccccc2C(=O)N1c1ccc(Br)cc1 [Compound 8, 2-(4-Bromophenyl)isoindoline-1,3-dione] |  |  | 102 µM (≈ 30.8 µg/mL) | 31 µM | > 150 µM | 
9 | O=C1c2ccccc2C(=O)N1c1cccc([N+](=O)[O-])c1 [Compound 10, 2-(3-Nitrophenyl)isoindoline-1,3-dione] |  |  | > 200 µM | 121 µM |  | 
10 | O=C(O)CN1C(=O)c2ccccc2C1=O [Compound 11, 2-(1,3-Dioxoisoindolin-2-yl)acetic Acid] |  |  | 164 µM (≈ 33.6 µg/mL) | 55 µM |  | 
11 | Cc1ccnc(N2C(=O)c3ccccc3C2=O)c1 [Compound 12, 2-(4-Methylpyridin-2-yl)isoindoline-1,3-dione] | 160 µM |  | > 200 µM | 148 µM |  | 
12 | Cc1ccc(N2C(=O)c3ccccc3C2=O)nc1 [Compound 13, 2-(5-Methylpyridin-2-yl)isoindoline-1,3-dione] | 148 µM |  | > 200 µM | 160 µM |  | 
13 | O=C1c2ccccc2C(=O)N1c1ccc(Br)cn1 [Compound 14, 2-(5-Bromopyridin-2-yl)isoindoline-1,3-dione] |  |  | > 200 µM | 90 µM |  | 
14 | COc1ccc(-c2nnc(N3C(=O)c4ccccc4C3=O)s2)cc1 [Compound 16, 2-(5-(4-Methoxyphenyl)-1,3,4-thiadiazol-2-yl)isoindoline-1,3-dione] |  |  | 182 µM (≈ 61.4 µg/mL) | 62 µM |  | 
15 | O=C1c2ccccc2C(=O)N1c1nnc(-c2ccccc2)s1 [Compound 19, 2-((5-Phenyl)-1,3,4-thiadiazol-2-yl)isoindoline-1,3-dione] |  |  | > 200 µM | > 200 µM |  | 
16 | O=C(NN1C(=O)c2ccccc2C1=O)c1ccc(O)cc1 [Compound 20, N-(1,3-Dioxoisoindoline-2-yl)-4-hydroxybenzamide] |  |  | > 200 µM | 101 µM |  | 
17 | O=C1c2ccccc2C(=O)N1c1nnc(-c2cccc(Br)c2)s1 [Compound 21, 2-(5-(3-Bromophenyl)-1,3,4-thiadiazol-2-yl)isoindoline-1,3-dione] |  |  | > 200 µM | 100 µM |  | 
18 | COc1ccccc1-c1nnc(N2C(=O)c3ccccc3C2=O)s1 [Compound 22, 2-(5-(2-Methoxyphenyl)-1,3,4-thiadiazol-2-yl)isoindoline-1,3-dione] |  |  | 180 µM (≈ 60.7 µg/mL) | 58 µM |  | 
19 | Cc1cccc(-c2nnc(N3C(=O)c4ccccc4C3=O)s2)c1 [Compound 23, 2-(5-(m-Tolyl)-1,3,4-thiadiazol-2-yl)isoindoline-1,3-dione] |  |  | 123 µM (≈ 39.5 µg/mL) | 43 µM |  | 
20 | O=C1c2ccccc2C(=O)N1c1nnc(Cc2ccccc2)s1 [Compound 24, 2-(5-Benzyl--1,3,4-thiadiazol-2-yl)isoindoline-1,3-dione] |  |  | > 200 µM | > 200 µM |  | 
21 | O=C1c2ccccc2C(=O)N1c1nnc(-c2ccccc2F)s1 [Compound 25, 2-(5-(2-Fluorophenyl)-1,3,4-thiadiazol-2-yl)isoindoline-1,3-dione] |  |  | > 200 µM | 133 µM |  | 
22 | O=C1c2ccccc2C(=O)N1c1nnc(-c2cccc(Cl)c2)s1 [Compound 26, 2-(5-(3-Chlorophenyl)-1,3,4-thiadiazol-2-yl)isoindoline-1,3-dione] |  |  | 192 µM (≈ 65.6 µg/mL) | 80 µM |  | 
23 | O=C1c2ccccc2C(=O)N1c1nnc(-c2ccc(I)cc2)s1 [Compound 27, 2-(5-(4-Iodophenyl)-1,3,4-thiadiazol-2-yl)isoindoline-1,3-dione] |  |  | 64 µM (≈ 27.7 µg/mL) | 18 µM | > 200 µM | 8.65 µM
24 | O=C1c2ccccc2C(=O)N1c1nnc(-c2ccccc2[N+](=O)[O-])s1 [Compound 28, 2-(5-(2-Nitrophenyl)-1,3,4-thiadiazol-2-yl)isoindoline-1,3-dione] |  |  | > 200 µM | 171 µM |  | 
25 | Cc1nnc(N2C(=O)c3ccccc3C2=O)s1 [Compound 29, 2-(5-Methyl-1,3,4-thiadiazol-2-yl)isoindolin-1,3-dione] |  |  | > 200 µM | 100 µM |  | 
26 | NNC(=O)c1ccncc1 [Isoniazid, reference compound] |  |  | 0.38 µM (≈ 0.0521 µg/mL) | 0.15 µM |  | 
